According to US7683091B2, “Substituted indoles and methods of their use” (Wyeth, priority 2005, dated 2010):

Target: T1, recombinant human plasminogen activator inhibitor-1 (PAI-1) (Homo sapiens, UniProt P05121)
T1 construct: purchased Molecular Innovations, Royal Oak, Mich
Assay: Primary Screen for PAI-1 Inhibition (chromogenic tPA activity assay)
Type: biochemical
Conditions: 140 nM PAI-1, 70 nM tPA, pH 6.6
Method: Primary Screen for PAI-1 Inhibition
The ability of the compounds of this invention to inhibit Plasminogen Activator Inhibitor-1 was established by the following experimental procedure:
Test compounds were dissolved in DMSO at a final concentration of 10 mM, then diluted […] in physiologic buffer. The inhibitory assay was initiated by the addition of the test compound (1-100 μM final concentration, maximum DMSO concentration of 0.2%) in a pH 6.6 buffer containing 140 nM recombinant human plasminogen activator inhibitor-1 (PAI-1; Molecular Innovations, Royal Oak, Mich.). Following a 1 hour incubation at room temperature, 70 nM of recombinant human tissue plasminogen activator (tPA) was added, and the combination of the test compound, PAI-1 and tPA was incubated for an additional 30 minutes. Following the second incubation, Spectrozyme-tPA (American Diagnostica, Greenwich, Conn.), a chromogenic substrate for tPA, was added and absorbance read at 405 nm at 0 and 60 minutes. Relative PAI-1 inhibition is equal to the residual tPA activity in the presence of the test compound and PAI-1. Control treatments include the complete inhibition of tPA by PAI-1 at the molar ratio employed (2:1), and the absence of any effect of the test compound on tPA alone.

T1 sequence (P05121 24-402): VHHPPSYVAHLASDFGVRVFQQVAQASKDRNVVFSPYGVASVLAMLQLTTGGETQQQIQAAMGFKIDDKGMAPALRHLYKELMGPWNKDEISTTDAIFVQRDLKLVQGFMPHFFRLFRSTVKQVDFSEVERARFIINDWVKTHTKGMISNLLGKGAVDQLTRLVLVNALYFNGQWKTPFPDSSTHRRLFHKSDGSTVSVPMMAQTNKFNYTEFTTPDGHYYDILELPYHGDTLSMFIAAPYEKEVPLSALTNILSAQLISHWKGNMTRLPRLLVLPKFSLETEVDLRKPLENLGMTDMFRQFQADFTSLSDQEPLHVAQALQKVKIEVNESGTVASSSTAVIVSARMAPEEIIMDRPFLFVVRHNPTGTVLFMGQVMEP

inhibition at 25 µM | SMILES
6 to 78% | O=C(O)CCNC(=O)c1ccc(Cn2ccc3cc(NS(=O)(=O)c4ccc(-c5ccccc5)cc4)ccc32)cc1 [Example 15, N-[4-({5-[(1,1′-Biphenyl-4-ylsulfonyl)amino]-1H-indol-1-yl}methyl)benzoyl]-β-alanine]
6 to 78% | CC(C)(C)c1ccc(S(=O)(=O)Nc2ccc3c(ccn3Cc3ccc(C(=O)NCCC(=O)O)cc3)c2)cc1 [Example 16, N-{4-[(5-{[(4-tert-Butylphenyl)sulfonyl]amino}-1H-indol-1-yl)methyl]benzoyl}-β-alanine]
6 to 78% | O=C(O)C1CCN(C(=O)c2ccc(Cn3ccc4cc(NS(=O)(=O)c5ccc(Cl)c(Cl)c5)ccc43)cc2)CC1 [Example 17, 1-{4-[(5-{[(3,4-Dichlorophenyl)sulfonyl]amino}-1H-indol-1 yl)methyl]benzoyl}piperidine-4-carboxylic acid]
6 to 78% | O=C(O)C1CCN(C(=O)c2ccc(Cn3ccc4cc(NS(=O)(=O)c5ccc(-c6ccccc6)cc5)ccc43)cc2)CC1 [Example 18, 1-[4-({5-[(1,1′-Biphenyl-4-ylsulfonyl)amino]-1H-indol-1-yl}methyl)benzoyl]piperidine-4-carboxylic acid]
6 to 78% | CC(C)(C)c1ccc(S(=O)(=O)Nc2ccc3c(ccn3Cc3ccc(C(=O)N4CCC(C(=O)O)CC4)cc3)c2)cc1 [Example 19, 1-{4-[(5-{[(4-tert-Butylphenyl)sulfonyl]amino}-1H-indol-1-yl)methyl]benzoyl}piperidine-4-carboxylic acid]
6 to 78% | O=C(O)Cn1ccc2cc(NS(=O)(=O)c3ccc(-c4ccccc4)cc3)ccc21 [Example 20, {5-[(1,1′-Biphenyl-4-ylsulfonyl)amino]-1H-indol-1-yl}acetic acid]
6 to 78% | O=C(Cn1ccc2cc(NS(=O)(=O)c3ccc(-c4ccccc4)cc3)ccc21)N[C@@H](Cc1ccccc1)C(=O)O [Example 21, N-({5-[(1,1′-Biphenyl-4-ylsulfonyl)amino]-1H-indol-1-yl}acetyl)-L-phenylalanine]
6 to 78% | CC(C)(C)c1ccc(S(=O)(=O)Nc2ccc3c(ccn3CC(=O)N[C@@H](Cc3ccccc3)C(=O)O)c2)cc1 [Example 22, N-[(5-{[(4-tert-Butylphenyl)sulfonyl]amino}-1H-indol-1-yl)acetyl]-L-phenylalanine]
6 to 78% | CC(C)C[C@H](NC(=O)Cn1ccc2cc(NS(=O)(=O)c3ccc(-c4ccccc4)cc3)ccc21)C(=O)O [Example 23, N-({5-[(1,1′-biphenyl-4-ylsulfonyl)amino]-1H-indol-1-yl}acetyl)-L-leucine]
6 to 78% | CC(C)C[C@H](NC(=O)Cn1ccc2cc(NS(=O)(=O)c3ccc(C(C)(C)C)cc3)ccc21)C(=O)O [Example 24, N-[(5-{[(4-tert-butylphenyl)sulfonyl]amino}-1H-indol-1-yl)acetyl]-L-leucine]

Second part, the compound before the results:

SMILES | inhibition at 25 µM
CC(C)(C)c1ccc(Cn2ccc3cc(NS(=O)(=O)c4cccc(C(=O)O)c4)ccc32)cc1 [Example 1, 3-({[1-(4-tert-butylbenzyl)-1H-indol-5-yl]amino}sulfonyl)benzoic acid] | 6 to 78%
COC(=O)CN(c1ccc2c(ccn2Cc2ccc(C(C)(C)C)cc2)c1)S(=O)(=O)c1ccccc1 [Example 2, {Benzenesulfonyl-[1-(4-tert-butyl-benzyl)-1H-indol-5-yl]-amino}-acetic acid methyl ester] | 6 to 78%
CC(C)(C)c1ccc(Cn2ccc3cc(N(Cc4ccc(C(=O)O)cc4)S(=O)(=O)c4ccccc4)ccc32)cc1 [Example 3, 4-{[[1-(4-tert-Butylbenzyl)-1H-indol-5-yl](phenylsulfonyl)amino]methyl}benzoic acid] | 6 to 78%
CC(C)(C)c1ccc(Cn2ccc3cc(NS(=O)(=O)c4ccc(C(=O)O)cc4)ccc32)cc1 [Example 4, 4-({[1-(4-tert-butylbenzyl)-1H-indol-5-yl]amino}sulfonyl)benzoic acid] | 6 to 78%
CC(C)(C)c1ccc(Cn2ccc3cc(NC(=O)N[C@@H](Cc4ccccc4)C(=O)O)ccc32)cc1 [Example 5, N-({[1-(4-tert-Butylbenzyl)-1H-indol-5-yl]amino}carbonyl)-L-phenylalanine] | 6 to 78%
CC(C)(C)c1ccc(Cn2ccc3cc(NC(=O)Nc4cccc(C(=O)O)c4)ccc32)cc1 [Example 6, 3-[({[1-(4-tert-Butylbenzyl)-1H-indol-5-yl]amino}carbonyl)amino]benzoic acid] | 6 to 78%
O=C(O)COc1ccc(Cn2ccc3cc(NS(=O)(=O)c4ccc(-c5ccccc5)cc4)ccc32)cc1 [Example 7, [4-({5-[(1,1′-Biphenyl-4-ylsulfonyl)amino]-1H-indol-1-yl}methyl)phenoxy]acetic acid] | 6 to 78%
CC(C)(C)c1ccc(S(=O)(=O)Nc2ccc3c(ccn3Cc3ccc(OCC(=O)O)cc3)c2)cc1 [Example 8, {4-[(5-{[(4-tert-Butylphenyl)sulfonyl]amino}-1H-indol-1-yl)methyl]phenoxy}acetic acid] | 6 to 78%
O=C(O)C(Cc1ccccc1)n1ccc2cc(NS(=O)(=O)c3ccc(OC(F)(F)F)cc3)ccc21 (stereo not drawn) [Example 9, 3-Phenyl-2-[5-({[4-(trifluoromethoxy)phenyl]sulfonyl}amino)-1H-indol-1-yl]propanoic acid] | 6 to 78%
O=C(N[C@@H](Cc1ccccc1)C(=O)O)c1ccc(Cn2ccc3cc(NS(=O)(=O)c4ccccc4)ccc32)cc1 [Example 10, N-[4-({5-[(Phenylsulfonyl)amino]-1H-indol-1-yl}methyl)benzoyl]-L-phenylalanine] | 6 to 78%
O=C(N[C@@H](Cc1ccccc1)C(=O)O)c1ccc(Cn2ccc3cc(NS(=O)(=O)c4ccc(OC(F)(F)F)cc4)ccc32)cc1 [Example 11, N-(4-{[5-({[4-(Trifluoromethoxy)phenyl]sulfonyl}amino)-1H-indol-1-yl]methyl}benzoyl)-L-phenylalanine] | 6 to 78%
O=C(N[C@@H](Cc1ccccc1)C(=O)O)c1ccc(Cn2ccc3cc(NS(=O)(=O)c4ccc(-c5ccccc5)cc4)ccc32)cc1 [Example 12, N-[4-({5-[(1,1′-Biphenyl-4-ylsulfonyl)amino]-1H-indol-1-yl}methyl)benzoyl]-L-phenylalanine] | 6 to 78%
CC(C)(C)c1ccc(S(=O)(=O)Nc2ccc3c(ccn3Cc3ccc(C(=O)N[C@@H](Cc4ccccc4)C(=O)O)cc3)c2)cc1 [Example 13, N-{4-[(5-{[(4-tert-Butylphenyl)sulfonyl]amino}-1H-indol-1-yl)methyl]benzoyl}-L-phenylalanine] | 6 to 78%
O=C(O)CCNC(=O)c1ccc(Cn2ccc3cc(NS(=O)(=O)c4ccc(OC(F)(F)F)cc4)ccc32)cc1 [Example 14, N-(4-{[5-({[4-(Trifluoromethoxy)phenyl]sulfonyl}amino)-1H-indol-1-yl]methyl}benzoyl)-β-alanine] | 6 to 78%
